This assay deals with T1, EcBE (E. coli branching enzyme) (Escherichia coli, UniProt P07762).
T1 construct: gene glgB; N-domain removed (first 113 amino acids of full-length EcBE); CBM48, catalytic and C-terminal domains kept; overexpressed in E. coli; four molecules per asymmetric unit
T1 sequence (P07762 114-728): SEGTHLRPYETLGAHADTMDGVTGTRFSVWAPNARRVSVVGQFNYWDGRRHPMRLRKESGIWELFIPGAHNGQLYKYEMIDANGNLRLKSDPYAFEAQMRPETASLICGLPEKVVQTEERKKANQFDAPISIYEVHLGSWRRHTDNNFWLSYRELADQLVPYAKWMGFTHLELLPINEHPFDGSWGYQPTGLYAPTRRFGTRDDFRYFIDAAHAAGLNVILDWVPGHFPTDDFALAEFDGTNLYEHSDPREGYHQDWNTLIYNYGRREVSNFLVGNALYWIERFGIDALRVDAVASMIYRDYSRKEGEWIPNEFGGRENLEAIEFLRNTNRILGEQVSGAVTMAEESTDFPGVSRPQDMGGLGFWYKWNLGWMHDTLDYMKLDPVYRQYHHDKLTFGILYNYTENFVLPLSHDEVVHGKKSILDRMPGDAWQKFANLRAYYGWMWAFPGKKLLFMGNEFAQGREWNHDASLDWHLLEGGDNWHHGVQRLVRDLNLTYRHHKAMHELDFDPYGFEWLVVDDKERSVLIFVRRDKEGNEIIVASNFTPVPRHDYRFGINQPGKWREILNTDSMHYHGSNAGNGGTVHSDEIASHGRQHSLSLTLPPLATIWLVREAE
The assay is described as follows: X-ray crystallography, crystal soak, […] Å. Type of assay: binding. To be noted: crystals soaked in 150 mM maltooctaose 5.5 h, 1.3 M ammonium tartrate pH 7.6, 10% PEG 4000; surface sites I-V and VIII-XII, not active site.

With `OC[C@H]1O[C@H](O[C@H]2[C@H](O)[C@@H](O)[C@@H](O[C@H]3[C@H](O)[C@@H](O)[C@@H](O[C@H]4[C@H](O)[C@@H](O)[C@@H](O[C@H]5[C@H](O)[C@@H](O)[C@@H](O[C@H]6[C@H](O)[C@@H](O)[C@@H](O[C@H]7[C@H](O)[C@@H](O)[C@@H](O[C@H]8[C@H](O)[C@@H](O)C(O)O[C@@H]8CO)O[C@@H]7CO)O[C@@H]6CO)O[C@@H]5CO)O[C@@H]4CO)O[C@@H]3CO)O[C@@H]2CO)[C@H](O)[C@@H](O)[C@@H]1O` (stereo partly shown) [M8, maltooctaose], the “X-ray crystallography, crystal soak, 3.0 Å” value was “we report the crystal structure of the maltooctaose-bound branching enzyme from the enterobacteria E. coli”.

Source of the values: article PMC10254366, “The Structure of Maltooctaose-Bound Escherichia coli Branching Enzyme Suggests a Mechanism for Donor Chain Specificity” (Molecules, 2023).
